Data taken from patent US20140135390A1, “Modified Platinum Compounds” (priority 2011, published 2014).

What was measured:
[1] = test system: murine breast cancer cells EMT-6; assay: In vitro cell viability of EMT-6 cells after 48 hours incubation, viable cells counted with a hemocytometer; type: cell-based; settings: 1 μM, 50 μM and 100 μM
Method: A murine breast cancer cells EMT-6 (0.5*10^6 cells/plate) were plated and grown in Dulbecco's Modified Eagle Medium (DMEM) supplemented with 10% FBS, 2% L-Glutamine Solution (200 mM), 2% Pen-Strep Solution (Biological Industries), and […] D-Glucose under regular growth conditions: 5% CO2, and 37.6° C.
After the incubation time, cells were washed with PBS (3 times), harvested using Trypsin-EDTA solution (Biological Industries), and the number of viable cells was counted under microscope using a microscope counting chamber (Hemocytometer).

[2] = test system: treated patients; settings: dose limiting toxicity; cited from earlier work

## N.N.[Cl][Pt][Cl] [Cisplatin, cis-diamminedichloroplatinum(II)]
[1]
  toxicity to the cells / effect on cell number (FIG. 1): dose-dependent reduction in the cells
[2]
  sensory neuropathy, share of treated patients: more than 20%
